Measured values as given in US10494363B2, “Non-steroidal glucocorticoid receptor modulators for local drug delivery” (LEO PHARMA A/S, priority 2015, dated 2019).

Key:
[1] = Human liver microsomes (HLM) assay; type: in vitro ADME; details: hepatic extraction ratio; 0.5 μM compound, 0.5 mg/mL microsomes, NADPH, 37° C.
Procedure, shortened: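 Compound at 0.5 μM incubated at 37° C. with human liver microsomes (0.5 mg/mL) and NADPH (1 mM) in phosphate buffer pH 7.4, 1% organic solvent; sampled 0-30 minutes. Clapp (mL/min/kg) and Eh (%) derived from depletion rate constant.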

[2] = target: T1, glucocorticoid receptor (GR), recombinant full-length receptor protein (Homo sapiens, UniProt P04150); assay: Glucocorticoid receptor binding assay (fluorescence polarization kit); details: 4 nM receptor, 2.5 nM Fluormone GS1 tracer, 2h room temperature, read-out: GR binding ABS IC50
T1 construct: 4 nM recombinant, full-length receptor protein was incubated with increasing concentrations of GR ligand; purchased Life Technologies A-15897
T1 sequence (P04150 1-777): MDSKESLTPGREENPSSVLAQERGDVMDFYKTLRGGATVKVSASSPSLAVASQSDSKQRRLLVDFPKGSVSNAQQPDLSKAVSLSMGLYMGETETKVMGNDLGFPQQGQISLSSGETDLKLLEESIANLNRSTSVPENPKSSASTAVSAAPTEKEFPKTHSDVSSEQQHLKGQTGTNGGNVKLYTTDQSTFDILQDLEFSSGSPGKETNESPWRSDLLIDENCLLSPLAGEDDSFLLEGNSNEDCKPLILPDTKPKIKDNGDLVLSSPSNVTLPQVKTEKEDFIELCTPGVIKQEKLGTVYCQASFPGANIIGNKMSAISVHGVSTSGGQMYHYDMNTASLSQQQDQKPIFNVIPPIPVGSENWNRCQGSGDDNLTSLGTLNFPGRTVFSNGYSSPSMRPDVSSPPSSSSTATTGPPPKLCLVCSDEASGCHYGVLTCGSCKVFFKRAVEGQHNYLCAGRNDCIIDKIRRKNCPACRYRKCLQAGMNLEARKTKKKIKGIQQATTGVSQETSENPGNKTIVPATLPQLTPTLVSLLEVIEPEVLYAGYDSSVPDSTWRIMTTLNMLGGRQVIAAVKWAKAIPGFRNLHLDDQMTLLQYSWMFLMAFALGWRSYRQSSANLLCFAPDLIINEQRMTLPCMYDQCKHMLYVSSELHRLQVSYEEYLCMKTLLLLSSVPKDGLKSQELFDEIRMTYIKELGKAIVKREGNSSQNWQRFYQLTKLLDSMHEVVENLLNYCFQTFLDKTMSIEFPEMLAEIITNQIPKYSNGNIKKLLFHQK
Description: Test compounds were diluted in DMSO over seven orders of magnitude, further diluted in assay buffer and distributed into 384-well plates. The sensitivity limit of this assay was 2-4 nM.
Data were processed by sigmoidal curve fitting.
Absolute (Abs) IC50 and Emax were determined from the curve fits.

[3] = tested on: TNF alpha release from human PBMCs; assay: Inhibition of TNF alpha release from human PBMCs; type: cell-based; details: LPS 1 μg/ml, 18 hours, AlphaLISA
Procedure, shortened: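 Fresh or thawed PBMCs in serum-free medium with 0.5% HSA, stimulated with 1 μg/ml LPS plus titrated compound for 18 h at 37° C. TNF-a in supernatant by AlphaLISA; window set with a reference PDE4 inhibitor at 100×IC50. EC50 and Emax from sigmoidal fits.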

Structure (SMILES)	HLM assay Eh (%) [1]	IC50 [2]	EC50 ([3]; PBMC)	EC50 [3]
C[C@H](NC(=O)c1ccnn1C)[C@H](Oc1ccc(C(=O)O[C@H]2CCCN(C(=O)[C@H]3COC(=O)C3)C2)cc1)c1ccc(C2CC2)cc1 [Compound 35, [(3S)-1-[(3R)-5-oxotetrahydrofuran-3-carbonyl]-3-piperidyl] 4-[(1R,2S)-1-(4-cyclopropylphenyl)-2-[(2-methylpyrazole-3-carbonyl)amino]propoxy]benzoate]	* (extraction ratio (Eh)>90%)	< 100 nM	100 to 300 nM	–
Cc1ncc(C(=O)N[C@@H](C)[C@H](Oc2ccc(C(=O)O[C@H]3CCCN(C(=O)[C@H]4COC(=O)C4)C3)cc2)c2ccc(C3CC3)cc2)s1 [Compound 36, [(3S)-1-[(3R)-5-oxotetrahydrofuran-3-carbonyl]-3-piperidyl] 4-[(1R,2S)-1-(4-cyclopropylphenyl)-2-[(2-methylthiazole-5-carbonyl)amino]propoxy]benzoate]	* (extraction ratio (Eh)>90%)	< 100 nM	< 100 nM	–
C[C@H](NC(=O)[C@H]1CCCO1)[C@H](Oc1ccc(C(=O)O[C@H]2CCCN(C(=O)[C@H]3COC(=O)C3)C2)cc1)c1ccc(C2CC2)cc1 [Compound 37, [(3S)-1-[(3R)-5-oxotetrahydrofuran-3-carbonyl]-3-piperidyl] 4-[(1R,2S)-1-(4-cyclopropylphenyl)-2-[[(2R)-tetrahydrofuran-2-carbonyl]amino]propoxy]benzoate]	* (extraction ratio (Eh)>90%)	< 100 nM	< 100 nM	–
C[C@H](NC(=O)c1cnnn1C)[C@H](Oc1ccc(C(=O)O[C@H]2CCCN(C(=O)[C@H]3COC(=O)C3)C2)cc1)c1ccc(C2CC2)cc1 [Compound 38, [(3S)-1-[(3R)-5-oxotetrahydrofuran-3-carbonyl]-3-piperidyl] 4-[(1R,2S)-1-(4-cyclopropylphenyl)-2-[(3-methyltriazole-4-carbonyl)amino]propoxy]benzoate]	* (extraction ratio (Eh)>90%)	< 100 nM	–	100 to 300 nM
C[C@H](NC(=O)c1ncon1)[C@H](Oc1ccc(C(=O)O[C@H]2CCCN(C(=O)[C@H]3COC(=O)C3)C2)cc1)c1ccc(C2CC2)cc1 [Compound 39, [(3S)-1-[(3R)-5-oxotetrahydrofuran-3-carbonyl]-3-piperidyl] 4-[(1R,2S)-1-(4-cyclopropylphenyl)-2-(1,2,4-oxadiazole-3-carbonylamino)propoxy]benzoate]	* (extraction ratio (Eh)>90%)	< 100 nM	< 100 nM	–
C[C@H](NC(=O)c1ccsn1)[C@H](Oc1ccc(C(=O)O[C@H]2CCCN(C(=O)[C@H]3COC(=O)C3)C2)cc1)c1ccc(C2CC2)cc1 [Compound 44, [(3S)-1-[(3R)-5-oxotetrahydrofuran-3-carbonyl]-3-piperidyl] 4-[(1R,2S)-1-(4-cyclopropylphenyl)-2-(isothiazole-3-carbonylamino)propoxy]benzoate]	* (extraction ratio (Eh)>90%)	< 100 nM	< 100 nM	–
C[C@H](NC(=O)c1nccs1)[C@H](Oc1ccc(C(=O)O[C@H]2CCCN(C(=O)[C@H]3COC(=O)C3)C2)cc1)c1ccc(C2CC2)cc1 [Compound 46, [(3S)-1-[(3R)-5-oxotetrahydrofuran-3-carbonyl]-3-piperidyl] 4-[(1R,2S)-1-(4-cyclopropylphenyl)-2-(thiazole-2-carbonylamino)propoxy]benzoate]	** (50%<extraction ratio (Eh)<90%)	< 100 nM	< 100 nM	–
C[C@H](NC(=O)c1ccns1)[C@H](Oc1ccc(C(=O)O[C@H]2CCCN(C(=O)[C@H]3COC(=O)C3)C2)cc1)c1ccc(C2CC2)cc1 [Compound 47, [(3S)-1-[(3R)-5-oxotetrahydrofuran-3-carbonyl]-3-piperidyl] 4-[(1R,2S)-1-(4-cyclopropylphenyl)-2-(isothiazole-5-carbonylamino)propoxy]benzoate]	* (extraction ratio (Eh)>90%)	< 100 nM	< 100 nM	–
C[C@H](NC(=O)c1ncco1)[C@H](Oc1ccc(C(=O)O[C@H]2CCCN(C(=O)[C@H]3COC(=O)C3)C2)cc1)c1ccc(C2CC2)cc1 [Compound 49, [(3S)-1-[(3R)-5-oxotetrahydrofuran-3-carbonyl]-3-piperidyl] 4-[(1R,2S)-1-(4-cyclopropylphenyl)-2-(oxazole-2-carbonylamino)propoxy]benzoate]	* (extraction ratio (Eh)>90%)	< 100 nM	< 100 nM	–

More lines, main results first:

HLM assay Eh (%) [1]	IC50 [2]	Structure (SMILES)	EC50 ([3]; PBMC)	EC50 [3]
* (extraction ratio (Eh)>90%)	< 100 nM	COCC(=O)N[C@@H](C)[C@H](Oc1ccc(C(=O)O[C@H]2CCCN(C(=O)[C@H]3COC(=O)C3)C2)cc1)c1ccc(C2CC2)cc1 [Compound 34, [(3S)-1-[(3R)-5-oxotetrahydrofuran-3-carbonyl]-3-piperidyl] 4-[(1R,2S)-1-(4-cyclopropylphenyl)-2-[(2-methoxyacetyl)amino]propoxy]benzoate]	< 100 nM	–
* (extraction ratio (Eh)>90%)	< 100 nM	C[C@H](NC(=O)c1nccn1C)[C@H](Oc1ccc(C(=O)O[C@H]2CCCN(C(=O)[C@H]3COC(=O)C3)C2)cc1)c1ccc(C2CC2)cc1 [Compound 40, [(3S)-1-[(3R)-5-oxotetrahydrofuran-3-carbonyl]-3-piperidyl] 4-[(1R,2S)-1-(4-cyclopropylphenyl)-2-[(1-methylimidazole-2-carbonyl)amino]propoxy]benzoate]	< 100 nM	–
* (extraction ratio (Eh)>90%)	< 100 nM	Cc1cc(C(=O)N[C@@H](C)[C@H](Oc2ccc(C(=O)O[C@H]3CCCN(C(=O)[C@H]4COC(=O)C4)C3)cc2)c2ccc(C3CC3)cc2)on1 [Compound 41, [(3S)-1-[(3R)-5-oxotetrahydrofuran-3-carbonyl]-3-piperidyl] 4-[(1R,2S)-1-(4-cyclopropylphenyl)-2-[(3-methylisoxazole-5-carbonyl)amino]propoxy]benzoate]	< 100 nM	–
* (extraction ratio (Eh)>90%)	< 100 nM	Cc1nc(C(=O)N[C@@H](C)[C@H](Oc2ccc(C(=O)O[C@H]3CCCN(C(=O)[C@H]4COC(=O)C4)C3)cc2)c2ccc(C3CC3)cc2)no1 [Compound 42, [(3S)-1-[(3R)-5-oxotetrahydrofuran-3-carbonyl]-3-piperidyl] 4-[(1R,2S)-1-(4-cyclopropylphenyl)-2-[(5-methyl-1,2,4-oxadiazole-3-carbonyl)amino]propoxy]benzoate]	< 100 nM	–
* (extraction ratio (Eh)>90%)	< 100 nM	C[C@H](NC(=O)c1cn(C)cn1)[C@H](Oc1ccc(C(=O)O[C@H]2CCCN(C(=O)[C@H]3COC(=O)C3)C2)cc1)c1ccc(C2CC2)cc1 [Compound 43, [(3S)-1-[(3R)-5-oxotetrahydrofuran-3-carbonyl]-3-piperidyl] 4-[(1R,2S)-1-(4-cyclopropylphenyl)-2-[(1-methylimidazole-4-carbonyl)amino]propoxy]benzoate]	< 100 nM	–
* (extraction ratio (Eh)>90%)	< 100 nM	Cc1nocc1C(=O)N[C@@H](C)[C@H](Oc1ccc(C(=O)O[C@H]2CCCN(C(=O)[C@H]3COC(=O)C3)C2)cc1)c1ccc(C2CC2)cc1 [Compound 45, [(3S)-1-[(3R)-5-oxotetrahydrofuran-3-carbonyl]-3-piperidyl] 4-[(1R,2S)-1-(4-cyclopropylphenyl)-2-[(3-methylisoxazole-4-carbonyl)amino]propoxy]benzoate]	< 100 nM	–
* (extraction ratio (Eh)>90%)	< 100 nM	Cc1sncc1C(=O)N[C@@H](C)[C@H](Oc1ccc(C(=O)O[C@H]2CCCN(C(=O)[C@H]3COC(=O)C3)C2)cc1)c1ccc(C2CC2)cc1 [Compound 48, [(3S)-1-[(3R)-5-oxotetrahydrofuran-3-carbonyl]-3-piperidyl] 4-[(1R,2S)-1-(4-cyclopropylphenyl)-2-[(5-methylisothiazole-4-carbonyl)amino]propoxy]benzoate]	< 100 nM	–
